Data set [1] is described as follows: Dissolution of chlorobutanol in water during preparation of F1(d). The format is physicochemical. As for the experimental part:
Chlorobutanol dissolves into water very slowly at ambient temperatures. Therefore during the preparation of F1(d), USP-PW was heated. After 18 minutes, the solution was clear and all of the chlorobutanol was completely dissolved.

Data set [2] deals with suspected opiate overdose. To be noted: cited from earlier work.
Data set [3] has as its system patients with suspected narcotic overdose. The conditions noted are these: cited from earlier work.
For data set [4] the following is noted: 2 mg nasal solution dose; predicted by Wermeling; cited from earlier work.
The next data set relates to opiate addicts. To be noted: nasal vs intravenous route; cited from earlier work.
The next data set concerns heroin overdose. To be noted: IM naloxone; cited from earlier work.
For data set [5], the system named is patients with suspected opioid overdose. To be noted: cited from earlier work.
Data set [6] has as its system suspected opiate overdose. To be noted: 2 mg IN, cited from earlier work.
In the next data set the test system is overdose events. To be noted: 399 overdose events where naloxone was used; cited from earlier work.

Like-named read-outs stand apart in the source and are kept apart here.

Turning to `CC(C)(O)C(Cl)(Cl)Cl` [Chlorobutanol, 1,1,1-trichloro-2-methylpropan-2-ol], the Dissolution into water entry in [1] (ambient temperatures) was “very slowly”. In addition, the “Time until solution clear and chlorobutanol completely dissolved” value in data set [1] (heated USP-PW, preparation of F1(d)) is 18 min.

The term Cmax denotes the maximum level reached in the sampled fluid or tissue. On to `C=CCN1CC[C@]23c4c5ccc(O)c4O[C@H]2C(=O)CC[C@@]3(O)[C@H]1C5` [naloxone, 17-allyl-4,5a-epoxy-3,14-dihydroxymorphinan-6-one], for which the “more than 10 spontaneous respirations per minute within 8 minutes” value in data set [2] (2 mg IM) is 82%; in [2] (2 mg IN, mucosal atomizer), 63%. Further, the needing rescue naloxone is on record as 13% in data set [2] (IM group) and 26% in data set [2] (IN group). Besides, the clinical response in data set [3] (IN group) is 66%; in data set [3] (IV group) it was 56%. For the same molecule, the maximum concentration (Cmax) in data set [4] is 3 to 5 ng/mL. In data set [4], the tmax result is reported as “approximately 20 minutes”. In addition, the “effectiveness of nasal administration” value in the data set with opiate addicts is “as effective as the intravenous route”. In addition, the “patients given supplementary naloxone” value with heroin overdose is reported as 4.5%. Also, the figures for the “mean interval from EMS arrival to respiratory rate ≥10 breaths/min” value in [5] (naloxone 0.4 mg IV) and in data set [5] (naloxone 0.8 mg SQ) were 9.3 ± 4.2 min and 9.6 ± 4.58 min, respectively. In addition, the “responders responding to IN naloxone alone” value in data set [6] (43 of 52 responders) is given as 83%. In addition, the “median time from administration of IN naloxone to awakening” value in [6] is 3.0 min. The “overdose events reported reversed” value in the data set with overdose events is on record as 89%.

The values are drawn from patent US20210186954A1, “DRUG PRODUCTS FOR NASAL ADMINISTRATION AND USES THEREOF” (Summit Biosciences Inc., priority 2018, published 2021).
